Reference: US20220370642A1, “METHODS OF DETECTING NEUROLOGICAL DISORDERS VIA BINDING TO PHOSPHORYLATED TAU PROTEIN” (Amydis, Inc., priority 2019, published 2022)

Tested on: hyperphosphorylated 3RTau
Experiment: Tau protein retinal staining: colocalization of Compound 5 with 3RTau antibody in retinal sections (confocal fluorescence)
Assay type: binding, mice
Details: for Pearson correlation coefficient (PCC) of colocalization with 3RTau antibody: Image J analysis, -1=complete anti-colocalization, 0=non colocalization, 1=complete colocalization
Method: Retinas of different age of three-repeat tau (“3RTau”) mice (3 months, 6 months and 12 months) were mounted on slides. The retina were washed with PBS 2 times for 5 minutes. A solution of 98% formic acid was added—5 minutes for antigen retrieval. The sampled were washed with distilled water—2 times for 5 minutes. The samples were equilibrated in 1×PBS for 15 minutes, then blocked with 10% goat/donkey serum in 1×PBST (depending on antibodies) for 1 hour. The samples were then incubated with three-repeat tau antibody in 10% goat serum in 1×PBST at 4 degree C. overnight, then rinsed with 1×PBST 3 times for 5 minutes each. Samples were incubated with secondary antibody (Alexa Fluor 568 Anti mouse) in 1×PBST for 1 hour, then covered with foil, then rinsed with 1×PBST 3 times for 5 minutes each. Samples were stained with Compound 5 working solution for 30 minutes at room temperature, covered in foil, and washed with 1×PBS 3 times for 5 minutes each. Samples were stained with DAPI (300 nM or 100 ng/mL) in dark for 10 minutes, then tissues were washed 3×10 minutes with PBS. Antifade DAKO mounting medium was added, and coverslip and kept under foil until imaging. Images were obtained using a Leica confocal microscope.
Fluorescent imaging study was conducted on a Leica DMI 4000B microscope (Leica, Germany) equipped with a TCS SPE camera and Leica 10, 20 and 40× objectives. The following lasers were used to visualize fluorescent probes pertaining to DAPI (blue, nuclear stain), Compound 5 (green) and 3RTau (red): 408, 488 and 568 nm. Z-stacked images were taken at 40× at 0.5 μm increments to visualize the entire thickness of the tissue.

Which “Pearson correlation coefficient (PCC) of colocalization with 3RTau antibody” value (3RTau mouse retinal section) does the source give for `N#C/C(=C\c1ccc2cc(N3CCCCC3)ccc2c1)C(=O)NCC(O)CO` (stereo not drawn) [Compound 5] here?
Its value is 0.67.

And the “colocalization with 3Rtau immunoreactivity in retina (immunostaining)” value (3RTau transgenic mice retina, 3, 6 and 12 months)?
Its value is “colocalizes”.

What about the “Pearson correlation coefficient (PCC) of colocalization with 3RTau antibody” value (control mouse retinal section) of the same molecule?
Its value is 0.04.
